Consider one molecule from patent US8124381B2, “Process and materials for production of glucosamine and N-acetylglucosamine” (Arkion Life Sciences, priority 2002, dated 2012).

The Ki is the equilibrium dissociation constant of an inhibitor or competing ligand from its target. Broadly, the remaining activity is the share of the control activity or signal that is left under treatment.

“Also recorded” adds a separate entry of the source.

Assay [1] concerns the target E. coli GlmS mutant GlmS*4 (strain 2123-4) (Escherichia coli, UniProt P17169). The assay can be described thus: GlmS sensitivity to inhibition by glucosamine-6-P. The settings on record: 0-30 mM glucosamine-6-P; FIG. 5. It counts as biochemical. The protocol: (§1) Different glucosamine synthetase enzymes, including native B. subtillus GlmS, native E. coli GlmS and mutant E. coli GlmS, were studied in vitro. Cells of various E. coli strains were grown in the M9A medium, harvested, and frozen. Cells extracts were prepared and the glucosamine synthetases were characterized and compared.
(§2) Enzyme sensitivities to the reaction product glucosamine-6-P were examined. […] This figure highlights the dramatic difference between the wild type GlmS and these mutant GlmS strains.

Assay [2] has as its target E. coli GlmS mutant GlmS*59 (strain 2123-59) (Escherichia coli, UniProt P17169). In words: GlmS sensitivity to inhibition by glucosamine-6-P. It counts as biochemical. The settings on record: 0-30 mM glucosamine-6-P; FIG. 5. The protocol:
as §1, §2

Assay [3] deals with E. coli GlmS mutant GlmS*64 (strain 2123-64) (Escherichia coli, UniProt P17169). In words: GlmS sensitivity to inhibition by glucosamine-6-P. It counts as biochemical. The settings on record: 0-30 mM glucosamine-6-P; FIG. 5. On the procedure:
as §1, §2

Assay [4] addresses T1, E. coli GlmS mutant GlmS*124, SEQ ID NO:8 (Leu469Pro) (strain 2123-124) (Escherichia coli, UniProt P17169, L469P).
T1 construct: made in house; host or cells: E. coli strain 2123-124, cell extract
The assay can be described thus: GlmS inhibition and Michaelis-Menten kinetics. It counts as biochemical. On the procedure:
as §1, §2
(§3) The Mutants 2123-54 and the B. subtilis enzyme have higher Ki values (Table 6). Measured Ki constants for several of these mutants are 4 to 8 times the value for the native enzyme in strain 2123-12. From shake flask studies it is apparent that decreased sensitivity to glucosamine-6-P allows higher glucosamine levels to accumulate.
(§4) These values are slightly higher than those obtained with the native enzyme.

The target of assay [5] is E. coli GlmS mutant GlmS*110 (Escherichia coli, UniProt P17169). The assay can be described thus: GlmS inhibition and Michaelis-Menten kinetics. It counts as biochemical. The settings on record: read-out: Ki (GlcN-6-P). On the procedure: as §1, §2, §3, §4
E. coli GlmS mutant GlmS*110, sequence (P17169 whole entry, stated change not applied): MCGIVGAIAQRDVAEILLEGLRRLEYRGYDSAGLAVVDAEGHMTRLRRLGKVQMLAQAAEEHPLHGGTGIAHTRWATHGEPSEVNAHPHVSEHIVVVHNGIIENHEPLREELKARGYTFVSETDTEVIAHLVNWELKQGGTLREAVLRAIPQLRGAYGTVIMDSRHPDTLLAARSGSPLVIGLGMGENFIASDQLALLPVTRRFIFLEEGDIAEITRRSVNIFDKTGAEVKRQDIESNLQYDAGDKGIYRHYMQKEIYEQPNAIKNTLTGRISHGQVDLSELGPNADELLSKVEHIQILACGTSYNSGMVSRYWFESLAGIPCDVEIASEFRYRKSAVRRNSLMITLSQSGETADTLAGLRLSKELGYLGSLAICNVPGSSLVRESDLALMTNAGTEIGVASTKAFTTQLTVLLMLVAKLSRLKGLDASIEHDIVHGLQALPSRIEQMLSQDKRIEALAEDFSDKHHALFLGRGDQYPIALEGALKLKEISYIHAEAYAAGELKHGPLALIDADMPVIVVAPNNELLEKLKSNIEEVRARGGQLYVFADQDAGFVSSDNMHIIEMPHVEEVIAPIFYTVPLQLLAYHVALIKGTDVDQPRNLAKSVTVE
The target of assay [6] is T2, E. coli GlmS mutant GlmS*72, SEQ ID NO:14 (Glu15Lys, Asp387Val, Ser450Pro, Glu525Gly) (strain 2123-72) (Escherichia coli, UniProt P17169, D387V/E15K/E525G/S450P).
T2 construct: made in house; host or cells: E. coli strain 2123-72 (from 7101-17(DE3), plasmid with glmS*72 integrated), cell extract
T2 sequence (P17169 2-609 E15K/D387V/S450P/E525G): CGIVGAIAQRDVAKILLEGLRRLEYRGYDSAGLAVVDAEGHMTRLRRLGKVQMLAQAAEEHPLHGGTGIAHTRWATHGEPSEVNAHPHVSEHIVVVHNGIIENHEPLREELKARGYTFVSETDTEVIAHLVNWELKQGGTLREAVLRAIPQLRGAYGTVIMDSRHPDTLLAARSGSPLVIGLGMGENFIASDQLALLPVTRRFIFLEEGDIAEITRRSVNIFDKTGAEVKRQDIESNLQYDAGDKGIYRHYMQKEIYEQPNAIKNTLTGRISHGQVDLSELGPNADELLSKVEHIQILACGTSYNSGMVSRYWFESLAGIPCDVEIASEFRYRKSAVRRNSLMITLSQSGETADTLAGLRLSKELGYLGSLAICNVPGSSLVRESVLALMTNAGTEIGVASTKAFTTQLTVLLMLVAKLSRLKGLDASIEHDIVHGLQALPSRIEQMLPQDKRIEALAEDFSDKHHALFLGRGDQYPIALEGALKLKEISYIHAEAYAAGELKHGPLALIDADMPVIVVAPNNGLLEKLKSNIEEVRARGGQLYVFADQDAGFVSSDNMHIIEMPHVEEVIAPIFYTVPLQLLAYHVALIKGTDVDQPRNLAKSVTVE
The assay can be described thus: GlmS inhibition and Michaelis-Menten kinetics. It counts as biochemical. The protocol:
as §1, §2, §3, §4

Assay [7] has as its target E. coli GlmS mutant GlmS*69 (Escherichia coli, UniProt P17169). In words: GlmS inhibition and Michaelis-Menten kinetics. It counts as biochemical. As to conditions: read-out: Ki (GlcN-6-P). The protocol:
as §1, §2, §3, §4

Assay [8] has as its target phosphoglucoisomerase (Pgi) (Escherichia coli, UniProt P0A6T1). As to conditions: literature; cited from earlier work.
For assay [9], the target named is E. coli glucosamine synthase GlmS*54, SEQ ID NO:6 (Ala39Thr, Arg250Cys, Gly472Ser) (Escherichia coli, UniProt P17169, A39T/G472S/R250C). In words: Effects of phosphorylated sugars on glucosamine synthase, crude extract of lactose-induced 7107-18 cells. It counts as biochemical. As to conditions: 10 mM or relatively high concentration. On the procedure:
(§5) Glucosamine synthetase activity was examined in the presence of various phosphorylated sugars. Crude enzyme extracts was prepared from cells of 7017-18 grown in shake flasks for 24 hours with lactose induction.

Assay [10] has as its target glucose-6-P dehydrogenase (zwf) (Escherichia coli, UniProt P0AC53, A9V). The assay can be described thus: Effect of phosphorylated amino sugars on glucose-6-P dehydrogenase. It counts as biochemical. As to conditions: in vitro, FIG. 16.
The target in assay [11] is T3, E. coli GlmS mutant GlmS*54, SEQ ID NO:6 (Ala39Thr, Arg250Cys, Gly472Ser) (strain 2123-54) (Escherichia coli, UniProt P17169, A39T/G472S/R250C).
T3 construct: made in house; host or cells: E. coli strain 2123-54 (lacZ::T7-glmS*54), crude cell extract
T3 sequence (P17169 2-609 A39T/R250C/G472S): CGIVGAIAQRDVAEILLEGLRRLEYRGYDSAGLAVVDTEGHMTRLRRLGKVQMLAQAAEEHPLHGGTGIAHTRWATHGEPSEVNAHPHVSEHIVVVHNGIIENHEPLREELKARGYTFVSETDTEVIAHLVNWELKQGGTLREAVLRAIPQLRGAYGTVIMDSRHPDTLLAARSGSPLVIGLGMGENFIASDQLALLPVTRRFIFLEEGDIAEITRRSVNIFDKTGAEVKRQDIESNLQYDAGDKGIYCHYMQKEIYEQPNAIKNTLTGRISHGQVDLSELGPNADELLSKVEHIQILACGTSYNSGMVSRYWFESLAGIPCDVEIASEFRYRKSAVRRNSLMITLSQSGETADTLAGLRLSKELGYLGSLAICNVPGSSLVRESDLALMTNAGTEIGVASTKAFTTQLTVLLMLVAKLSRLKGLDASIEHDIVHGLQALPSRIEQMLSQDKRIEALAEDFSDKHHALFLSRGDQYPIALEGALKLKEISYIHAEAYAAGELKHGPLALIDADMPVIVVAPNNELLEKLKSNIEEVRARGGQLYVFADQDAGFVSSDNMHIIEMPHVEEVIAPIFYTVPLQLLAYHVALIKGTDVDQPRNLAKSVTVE
The assay can be described thus: GlmS inhibition and Michaelis-Menten kinetics, crude extract of strain 2123-54. It counts as biochemical. The protocol:
as §1, §2, §3, §4

Assay [12] addresses T4, E. coli GlmS (glucosamine-6-phosphate synthase), wild type, SEQ ID NO:2 (strain 2123-12) (Escherichia coli, UniProt P17169).
T4 construct: made in house; host or cells: E. coli strain 2123-12 (T7-glmS integrated in the chromosome), crude cell extract
The assay can be described thus: GlmS (glucosamine synthase) inhibition and Michaelis-Menten kinetics, crude extract of strain 2123-12. It counts as biochemical. On the procedure:
as §1, §2, §3, §4

Assay [13] deals with phosphoglucoisomerase (Pgi). The assay can be described thus: Effect of phosphorylated amino sugars on phosphoglucoisomerase activity (FIG. 15). It counts as biochemical. The settings on record: in vitro. The text has this: Therefore, effects of glucosamine-6-P and N-acetylglucosamine-6-P on several of the enzymes were examined.
Assay [14] has as its system phosphoglucoisomerase (Pgi). The settings on record: cited from earlier work.
Assay [15] has as its target T5, Bacillus subtilis GlmS, wild type, SEQ ID NO:16 (Bacillus subtilis, UniProt P0CI73).
T5 construct: made in house; host or cells: E. coli 7107-24 (7101-17(DE3) with pET24d(+)/B. subtilis glmS from ATCC23856), crude cell extract
The assay can be described thus: biochemical. The protocol:
as §1
Enzyme sensitivities to the reaction product glucosamine-6-P were examined.

Assay [16] concerns the target T6, E. coli glucosamine synthase GlmS*54 (Escherichia coli, UniProt P17169, A39T/G472S/R250C).
T6 construct: made in house; host or cells: E. coli 7107-18 (printed '7017-18'; T7-glmS*54 integrated at galK) and strains derived from it; crude extract
The assay can be described thus: Effects of phosphorylated sugars on glucosamine synthase. It counts as biochemical. On the procedure: as §5

Setting [17] is: 0-30 mM glucosamine-6-P, FIG. 5.

T4 sequence (P17169 2-609 limits assumed): as the sequence (P17169 2-609 E15K/D387V/S450P/E525G) above, with K14E, V386D, P449S, G524E counted along it
T5 sequence (P0CI73 2-600): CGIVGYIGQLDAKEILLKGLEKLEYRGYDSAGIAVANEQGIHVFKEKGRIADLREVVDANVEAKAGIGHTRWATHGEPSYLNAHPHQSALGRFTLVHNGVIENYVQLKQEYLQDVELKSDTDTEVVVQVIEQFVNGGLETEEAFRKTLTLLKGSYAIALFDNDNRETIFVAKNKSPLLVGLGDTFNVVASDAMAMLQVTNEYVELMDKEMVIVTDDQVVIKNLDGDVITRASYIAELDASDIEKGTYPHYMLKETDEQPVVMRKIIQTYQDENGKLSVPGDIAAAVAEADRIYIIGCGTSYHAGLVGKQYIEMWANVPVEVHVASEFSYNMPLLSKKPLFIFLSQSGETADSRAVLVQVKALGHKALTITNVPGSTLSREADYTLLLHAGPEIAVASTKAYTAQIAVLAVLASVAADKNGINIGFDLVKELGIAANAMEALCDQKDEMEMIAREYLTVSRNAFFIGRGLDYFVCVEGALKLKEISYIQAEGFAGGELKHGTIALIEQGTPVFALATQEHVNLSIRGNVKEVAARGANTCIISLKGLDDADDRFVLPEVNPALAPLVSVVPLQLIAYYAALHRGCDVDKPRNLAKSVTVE
T1 sequence (P17169 2-609 L469P): as the sequence (P17169 2-609 E15K/D387V/S450P/E525G) above, with K14E, V386D, P449S, L468P, G524E counted along it
E. coli glucosamine synthase GlmS*54, SEQ ID NO:6 (Ala39Thr, Arg250Cys, Gly472Ser), sequence (P17169 whole entry A39T/R250C/G472S): as the sequence (P17169 whole entry, stated change not applied) above, with A39T, R250C, G472S counted along it
phosphoglucoisomerase (Pgi) (Escherichia coli, UniProt P0A6T1), sequence (P0A6T1 whole entry): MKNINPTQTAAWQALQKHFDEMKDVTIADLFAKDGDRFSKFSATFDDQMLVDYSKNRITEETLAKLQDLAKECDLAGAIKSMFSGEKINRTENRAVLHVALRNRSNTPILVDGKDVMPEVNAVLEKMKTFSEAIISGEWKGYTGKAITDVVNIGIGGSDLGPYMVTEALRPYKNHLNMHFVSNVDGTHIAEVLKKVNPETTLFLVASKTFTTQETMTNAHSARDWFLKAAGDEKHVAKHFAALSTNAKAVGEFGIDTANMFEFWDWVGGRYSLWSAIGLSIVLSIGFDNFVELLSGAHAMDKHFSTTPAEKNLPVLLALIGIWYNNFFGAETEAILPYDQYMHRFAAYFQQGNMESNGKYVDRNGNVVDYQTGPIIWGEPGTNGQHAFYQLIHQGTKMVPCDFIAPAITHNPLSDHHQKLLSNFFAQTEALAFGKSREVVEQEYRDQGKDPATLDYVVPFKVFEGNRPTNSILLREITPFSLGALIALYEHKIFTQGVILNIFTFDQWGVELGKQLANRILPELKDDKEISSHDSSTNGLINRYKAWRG
E. coli GlmS mutant GlmS*64 (strain 2123-64), sequence (P17169 whole entry, change not shown): as the sequence (P17169 whole entry, stated change not applied) above
E. coli GlmS mutant GlmS*69, sequence (P17169 whole entry, change not shown): as the sequence (P17169 whole entry, stated change not applied) above
E. coli GlmS mutant GlmS*4 (strain 2123-4), sequence (P17169 whole entry, stated change not applied): as above
E. coli GlmS mutant GlmS*59 (strain 2123-59), sequence (P17169 whole entry, change not shown): as the sequence (P17169 whole entry, stated change not applied) above
glucose-6-P dehydrogenase (zwf), sequence (P0AC53 whole entry A9V): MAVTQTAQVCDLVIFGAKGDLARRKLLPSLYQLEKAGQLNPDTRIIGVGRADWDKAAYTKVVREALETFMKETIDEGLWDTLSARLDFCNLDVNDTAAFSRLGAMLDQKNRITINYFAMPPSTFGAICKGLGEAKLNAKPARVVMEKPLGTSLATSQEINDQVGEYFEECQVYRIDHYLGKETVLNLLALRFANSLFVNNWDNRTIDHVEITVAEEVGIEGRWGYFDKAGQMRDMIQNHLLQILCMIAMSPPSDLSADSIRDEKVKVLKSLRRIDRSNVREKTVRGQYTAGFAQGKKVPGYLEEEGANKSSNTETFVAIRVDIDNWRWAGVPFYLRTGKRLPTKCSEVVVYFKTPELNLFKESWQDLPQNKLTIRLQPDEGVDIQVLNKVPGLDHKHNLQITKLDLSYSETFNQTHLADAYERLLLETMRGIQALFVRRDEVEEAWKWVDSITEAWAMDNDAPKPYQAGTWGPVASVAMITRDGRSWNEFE

In the case of `N[C@H]1C(O)O[C@H](COP(=O)(O)O)[C@@H](O)[C@@H]1O` (stereo partly drawn) [glucosamine-6-P, glucosamine-6-phosphate], the “sensitivity to GlcN-6-P inhibition” value in assay [1], in assay [2], in assay [3], in assay [4] (setting [17]) and in [6] (setting [17]) was “reduced sensitivity to GlcN-6-P inhibition” each time. In addition, the Ki in [4] came out at 3500 µM; in assay [5], 1600 µM; in assay [6], 1400 µM; in assay [7] it was 1500 µM; in [11], 4000 µM; in assay [12], 560 µM. In addition, in assay [15] (read-out: Ki (GlcN-6-P)), the Ki came to 1250 µM. Further, the “reported inhibitor of phosphoglucoisomerase (Pgi)” value in assay [8] was “inhibitor”. For the same molecule, the “inhibition of glucosamine synthetase (in words)” value is listed as “strong inhibition on glucosamine synthetase at relatively high concentration” in [9] and “strong inhibition” in assay [16]. Also, the “inhibition of glucose-6-P dehydrogenase (zwf)” value in assay [10] is “more potent inhibitor of the enzyme than N-acetylglucosamine-6-P”. Besides, the “effect of glucosamine-6-P on enzyme activity” value in assay [11] (1 mM glucosamine-6-P, saturating substrates) was “essentially has no effect on enzyme activity”. For the same molecule, the remaining activity at 10000 µM in [11] (read-out: activity remaining at 10 mM glucosamine-6-P) was roughly 50%. Besides, in assay [12] (read-out: loss of activity at 1 mM glucosamine-6-P), the inhibition at 1000 µM was roughly 50%. In addition, the “inhibition of Pgi (in words)” value in assay [13] is “Inhibition is observed”. Also, the “inhibition of phosphoglucoisomerase (literature)” value in assay [14] is “reported as an inhibitor of Pgi; also recorded: reported as an inhibitor of phosphoglucoisomerase”. The product resistance entry in assay [15] (0, 2 and 4 mM glucosamine-6-P, FIG. 4) is on record as “product resistance very comparable to the E. coli mutant GlmS enzymes”. Also, in assay [16], the activity at 10000 µM came out at 70%. Besides, the activity at 20000 µM in assay [16] stood at 46%.
